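Compound exposure: 48 hours, 5 concentrations, 96-well plates. Abbreviation: GI50, concentration required for 50% inhibition of growth. TGI: total growth inhibition.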
Experiments:
Assay in all cases: growth of human tumour cells (NCI), 48 h
M14 melanoma = system: M14 melanoma
U251 CNS = system: U251 CNS
OVCAR-5 ovarian = system: OVCAR-5 ovarian
EKVX NSCLC = system: EKVX NSCLC
NCI-H23 lung = system: NCI-H23 lung
UACC-257 melanoma = system: UACC-257 melanoma
NCI/ADR-RES ovarian = system: NCI/ADR-RES ovarian
SF-268 CNS = system: SF-268 CNS
KM12 colon = system: KM12 colon
CCRF-CEM leukemia = system: CCRF-CEM leukemia

## O=C1C=C2S[C@H]3C[C@]2(C=C1Br)c1c(c(O)c2c4c1=NCCC=4C=N2)N3
M14 melanoma
  TGI: 2.01 µM
U251 CNS
  TGI: 3.17 µM
OVCAR-5 ovarian
  TGI: 3.25 µM
EKVX NSCLC
  TGI: 3.19 µM
NCI-H23 lung
  TGI: 2.57 µM
UACC-257 melanoma
  TGI: 0.557 µM
NCI/ADR-RES ovarian
  TGI: 0.457 µM
SF-268 CNS
  TGI: 2.91 µM
KM12 colon
  TGI: 3.83 µM

## C=C1c2nc3ccccc3n2C=C(c2ccc(Cl)cc2)N1c1ccc(OCCN2CCOCC2)cc1
M14 melanoma
  TGI: 58.8 µM
U251 CNS
  TGI: > 100 µM
OVCAR-5 ovarian
  TGI: > 100 µM
NCI-H23 lung
  TGI: > 100 µM
UACC-257 melanoma
  TGI: 90.3 µM
NCI/ADR-RES ovarian
  TGI: > 100 µM
SF-268 CNS
  TGI: > 100 µM
KM12 colon
  TGI: > 100 µM

## O=C(N=Nc1ccc([N+](=O)[O-])cc1)NNc1ccc([N+](=O)[O-])cc1
M14 melanoma
  TGI: 31 µM
U251 CNS
  TGI: 59.7 µM
OVCAR-5 ovarian
  TGI: 48 µM
NCI-H23 lung
  TGI: 44.7 µM
UACC-257 melanoma
  TGI: 67.5 µM
CCRF-CEM leukemia
  TGI: 47.1 µM
SF-268 CNS
  TGI: 80.1 µM

## Nn1c(CNc2ccc(-c3nnc(Nc4ccc(Cl)cc4)n3N)cc2)nnc1Nc1ccc(Cl)cc1
M14 melanoma
  TGI: > 100 µM
U251 CNS
  TGI: > 100 µM
OVCAR-5 ovarian
  TGI: > 100 µM
EKVX NSCLC
  TGI: > 100 µM
NCI-H23 lung
  TGI: > 100 µM
UACC-257 melanoma
  TGI: > 100 µM
NCI/ADR-RES ovarian
  TGI: > 100 µM
SF-268 CNS
  TGI: > 100 µM
KM12 colon
  TGI: > 100 µM

## CC(C)(C)OC(=O)N1C(C2=COc3ccccc3O2)=COc2ccccc21
M14 melanoma
  TGI: > 100 µM
U251 CNS
  TGI: > 100 µM
OVCAR-5 ovarian
  TGI: 99.1 µM
EKVX NSCLC
  TGI: 52.3 µM
NCI-H23 lung
  TGI: 95.1 µM
UACC-257 melanoma
  TGI: 78 µM
NCI/ADR-RES ovarian
  TGI: 82.3 µM
SF-268 CNS
  TGI: 64.4 µM
KM12 colon
  TGI: > 100 µM

## CC1=CC(c2ccccc2)OP1(=O)c1ccccc1 (stereo not drawn)
M14 melanoma
  TGI: > 100 µM
U251 CNS
  TGI: > 100 µM
OVCAR-5 ovarian
  TGI: > 100 µM
EKVX NSCLC
  TGI: > 100 µM
NCI-H23 lung
  TGI: > 100 µM
UACC-257 melanoma
  TGI: > 100 µM
NCI/ADR-RES ovarian
  TGI: > 100 µM
SF-268 CNS
  TGI: > 100 µM
KM12 colon
  TGI: > 100 µM

## CC(=O)OC1C=CC2CCN3C(=O)c4cc5c(cc4[C@H]1C23)OCO5 (stereo partly drawn)
M14 melanoma
  TGI: > 100 µM
U251 CNS
  TGI: > 100 µM
EKVX NSCLC
  TGI: > 100 µM
NCI-H23 lung
  TGI: > 100 µM
UACC-257 melanoma
  TGI: > 100 µM
CCRF-CEM leukemia
  TGI: > 100 µM
SF-268 CNS
  TGI: > 100 µM
KM12 colon
  TGI: > 100 µM

## COCCc1c(C)c(C#N)c2n(C)c3ccccc3n2c1=O
M14 melanoma
  TGI: > 10 µM
U251 CNS
  TGI: > 10 µM
OVCAR-5 ovarian
  TGI: > 10 µM
EKVX NSCLC
  TGI: > 10 µM
NCI-H23 lung
  TGI: > 10 µM
UACC-257 melanoma
  TGI: > 10 µM
NCI/ADR-RES ovarian
  TGI: > 10 µM
SF-268 CNS
  TGI: > 10 µM
KM12 colon
  TGI: > 10 µM

## O=C(O)CC(NC(=O)C(F)(F)F)C(=O)NC1Cc2ccccc2OC1=O (stereo not drawn)
M14 melanoma
  TGI: > 100 µM
U251 CNS
  TGI: > 100 µM
OVCAR-5 ovarian
  TGI: > 100 µM
EKVX NSCLC
  TGI: > 100 µM
NCI-H23 lung
  TGI: > 100 µM
UACC-257 melanoma
  TGI: > 100 µM
NCI/ADR-RES ovarian
  TGI: > 100 µM
SF-268 CNS
  TGI: > 100 µM
KM12 colon
  TGI: > 100 µM

## NS(=O)(=O)c1nnc(NC(=O)CCC(=O)O)s1
M14 melanoma
  TGI: > 100 µM
U251 CNS
  TGI: > 100 µM
OVCAR-5 ovarian
  TGI: > 100 µM
EKVX NSCLC
  TGI: > 100 µM
NCI-H23 lung
  TGI: > 100 µM
UACC-257 melanoma
  TGI: > 100 µM
NCI/ADR-RES ovarian
  TGI: > 100 µM
SF-268 CNS
  TGI: > 100 µM
KM12 colon
  TGI: > 100 µM

## COC1/C=C/C(C)C(OC)CC(O)/C=C/C(C)C(C(C)C(OC)C(C)CCC(=O)C(C)C(C/C=C/N(C)C=O)OC)OC(=O)/C=C/C=C(\C)CC(OC)C(OC)C2=CC(=O)O[C@@H](C(C)C(OC)C1)[C@H]2O (stereo partly drawn)
M14 melanoma
  TGI: 0.0849 µM
U251 CNS
  TGI: 0.12 µM
OVCAR-5 ovarian
  TGI: 0.118 µM
EKVX NSCLC
  TGI: 0.28 µM
NCI-H23 lung
  TGI: 0.151 µM
UACC-257 melanoma
  TGI: 0.105 µM
NCI/ADR-RES ovarian
  TGI: 0.145 µM
SF-268 CNS
  TGI: 0.129 µM

## NCCCNCCSSCc1ccccc1CSSCCNCCCN
M14 melanoma
  TGI: > 100 µM
U251 CNS
  TGI: > 100 µM
OVCAR-5 ovarian
  TGI: > 100 µM
EKVX NSCLC
  TGI: > 100 µM
NCI-H23 lung
  TGI: > 100 µM
UACC-257 melanoma
  TGI: > 100 µM
CCRF-CEM leukemia
  TGI: 29.8 µM
SF-268 CNS
  TGI: > 100 µM
KM12 colon
  TGI: > 100 µM

## CN(C)C(=S)Nc1nnc(NC23CC4CC(CC(C4)C2)C3)s1
M14 melanoma
  TGI: 29.7 µM
U251 CNS
  TGI: 25.3 µM
EKVX NSCLC
  TGI: 59.7 µM
UACC-257 melanoma
  TGI: 32.5 µM
CCRF-CEM leukemia
  TGI: 84.9 µM
SF-268 CNS
  TGI: 48.5 µM
KM12 colon
  TGI: 46 µM

## COc1ccc(C2CCc3nc4nc(N)nc(N)c4cc3C2)cc1 (stereo not drawn)
M14 melanoma
  TGI: > 100 µM
U251 CNS
  TGI: 29.4 µM
OVCAR-5 ovarian
  TGI: > 100 µM
EKVX NSCLC
  TGI: > 100 µM
UACC-257 melanoma
  TGI: > 100 µM
NCI/ADR-RES ovarian
  TGI: > 100 µM
SF-268 CNS
  TGI: > 100 µM
KM12 colon
  TGI: > 100 µM

## CN(C)c1cccc(-c2cc(=O)c3ccccc3[nH]2)c1
M14 melanoma
  TGI: > 100 µM
U251 CNS
  TGI: > 100 µM
EKVX NSCLC
  TGI: > 100 µM
NCI-H23 lung
  TGI: > 100 µM
UACC-257 melanoma
  TGI: > 100 µM
CCRF-CEM leukemia
  TGI: > 100 µM
SF-268 CNS
  GI50: 76.6 µM
  TGI: > 100 µM
KM12 colon
  TGI: > 100 µM

## CSc1ccc2c(c1)c(CCN)c(C)n2Cc1ccc(Cl)c(Cl)c1
M14 melanoma
  GI50: 1.69 µM
  TGI: 3.22 µM
OVCAR-5 ovarian
  GI50: 1.51 µM
  TGI: 3.13 µM
NCI-H23 lung
  GI50: 1.73 µM
  TGI: 3.3 µM
UACC-257 melanoma
  GI50: 2.03 µM
  TGI: 3.74 µM

## CC(/C=C/c1ncccc1OCCCCCC(=O)O)=N\NC1=NCCN1
M14 melanoma
  TGI: > 100 µM
OVCAR-5 ovarian
  TGI: > 100 µM
EKVX NSCLC
  TGI: > 100 µM
CCRF-CEM leukemia
  TGI: > 100 µM
SF-268 CNS
  TGI: > 100 µM
KM12 colon
  TGI: > 100 µM

## O=C(NC(=O)c1cn(CCN2CCNCC2)c(=O)[nH]c1=O)OCc1ccccc1
M14 melanoma
  TGI: > 100 µM
U251 CNS
  TGI: > 100 µM
OVCAR-5 ovarian
  TGI: > 100 µM
EKVX NSCLC
  TGI: > 100 µM
NCI-H23 lung
  TGI: > 100 µM
CCRF-CEM leukemia
  TGI: > 100 µM
SF-268 CNS
  TGI: > 100 µM
KM12 colon
  TGI: > 100 µM

## COc1ccc2c(=O)c([Se]c3coc4cc(OC)ccc4c3=O)coc2c1
M14 melanoma
  TGI: 37.5 µM
U251 CNS
  TGI: > 100 µM
OVCAR-5 ovarian
  TGI: > 100 µM
EKVX NSCLC
  TGI: > 100 µM
NCI-H23 lung
  TGI: > 100 µM
UACC-257 melanoma
  TGI: > 100 µM
CCRF-CEM leukemia
  TGI: > 100 µM
SF-268 CNS
  TGI: > 100 µM
KM12 colon
  TGI: > 100 µM

From PubChem BioAssay (NCI)
